Laboratory results as given in the NIST ThermoML archive (doi:10.1021/je300678r).
Several values for one entry are separate records, joined by “and”; a condition that tells them apart may be missing. Equal entries are not always repeated.

Tests used:
[1] = refractive index (Na D-line) (dimensionless); xn = mol fraction of the nth substance listed; conditions: 298.15 K, 101 kPa, Liquid, Standard Abbe refractometry
[2] = xn = mol fraction of the nth substance listed; conditions: 298.15 K, 101 kPa, Liquid, Vibrating tube method
[3] = excess molar enthalpy (molar enthalpy of mixing); xn = mol fraction of the nth substance listed; conditions: 298.15 K, 101 kPa, Liquid, Flow calorimetry
[4] = Liquid; for mass density: 101.33 kPa, Vibrating tube method; for vapor or sublimation pressure: Ebulliometric method (Recirculating still)
[5] = refractive index (Na D-line) (dimensionless); conditions: 101.33 kPa, Liquid, Standard Abbe refractometry

CCCCC(CC)CO (centres undefined) [2-ethyl-1-hexanol] + CC(=O)CC(C)C
Conditions	excess molar enthalpy, [3]	mass density, [2]	refractive index, [1]
x2 = 0	–	–	1.42949
x2 = 0.0516	–	–	1.42806
x2 = 0.1009	0.132 kcal/mol	826.11 kg/m3	–
x2 = 0.1017	–	–	1.4266
x2 = 0.2001	0.236 kcal/mol	823.29 kg/m3	–
x2 = 0.2045	–	–	1.42351
x2 = 0.3019	0.313 kcal/mol	820.27 kg/m3	–
x2 = 0.397	–	–	1.41723
x2 = 0.4014	0.361 kcal/mol	817.23 kg/m3	–
x2 = 0.5009	0.38 kcal/mol	813.99 kg/m3	–
x2 = 0.6018	0.371 kcal/mol	810.67 kg/m3	–
x2 = 0.605	–	–	1.41
x2 = 0.7019	0.329 kcal/mol	807.13 kg/m3	–
x2 = 0.7986	–	–	1.40249
x2 = 0.8009	0.258 kcal/mol and 0.257 kcal/mol	803.8 kg/m3 and 803.62 kg/m3	–
x2 = 0.9004	0.149 kcal/mol	800.06 kg/m3	–
x2 = 0.9051	–	–	1.39848
x2 = 0.9491	–	–	1.39587

CCC(C)O (centres undefined) [butan-2-ol] + CC(=O)CC(C)C
Conditions	refractive index
[1], x2 = 0	1.39512

CC(=O)CC(C)C [4-methylpentan-2-one] + CCCCC(CC)CO
Conditions	refractive index
[1], x1 = 1	1.39346

CCC(C)(C)O [2-methylbutan-2-ol] + CC(=O)CC(C)C
Conditions	excess molar enthalpy, [3] [kcal/mol]	mass density, [2]	refractive index, [1]
x2 = 0	–	–	1.40253
x2 = 0.0598	–	–	1.40217
x2 = 0.1012	0.106	804.47 kg/m3	–
x2 = 0.1216	–	–	1.40156
x2 = 0.2017	0.196	803 kg/m3	–
x2 = 0.2171	–	–	1.40043
x2 = 0.3013	0.263	801.45 kg/m3	–
x2 = 0.4017	0.307	800.01 kg/m3 and 800 kg/m3	–
x2 = 0.4095	–	–	1.39811
x2 = 0.5008	0.327	798.73 kg/m3	–
x2 = 0.5982	–	–	1.39615
x2 = 0.6006	0.321	797.67 kg/m3	–
x2 = 0.7009	0.288	796.87 kg/m3	–
x2 = 0.8017	0.227	796.33 kg/m3	–
x2 = 0.8202	–	–	1.39439
x2 = 0.9007	0.132	796.12 kg/m3	–
x2 = 0.9177	–	–	1.39383
x2 = 0.9563	–	–	1.39364

CCC(C)O (centres undefined) [butan-2-ol]
Conditions	mass density, 297.83 K [kg/m3]	refractive index, 297.83 K	refractive index, 298.15 K	vapor or sublimation pressure, 358.16 K [kPa]	vapor or sublimation pressure, 367.97 K	vapor or sublimation pressure, 372.43 K [kPa]	vapor or sublimation pressure, 372.71 K [kPa]
[4]	802.7	–	–	57.27	84.94 kPa and 85.16 kPa	100.62	101.88
[5]	–	1.3951	1.39512	–	–	–	–

CCC(C)(C)O [2-methylbutan-2-ol]
Conditions	mass density [kg/m3]	refractive index	vapor or sublimation pressure [kPa]
[4], 297.85 K	805.3	–	–
[4], 336.04 K	–	–	19.84
[4], 344.75 K	–	–	29.94
[4], 351.29 K	–	–	39.96
[4], 356.6 K	–	–	49.95
[4], 361.18 K	–	–	60.05
[4], 365.4 K	–	–	70.74
[4], 368.07 K	–	–	78.27
[4], 368.16 K	–	–	78.09
[4], 368.75 K	–	–	80.2
[4], 371.97 K	–	–	90.23
[4], 375.14 K	–	–	100.74
[4], 375.38 K	–	–	101.88
[4], 375.53 K	–	–	102.61
[5], 297.85 K	–	1.4025	–
[5], 298.15 K	–	1.40253	–

CC(=O)CC(C)C [4-methylpentan-2-one] + CCC(C)O
Conditions	excess molar enthalpy, [3]	mass density, [2]	refractive index, [1]
x1 = 0.0502	–	–	1.39473
x1 = 0.1005	–	–	1.39443
x1 = 0.1009	0.161 kcal/mol	800.64 kg/m3	–
x1 = 0.2005	–	–	1.39392
x1 = 0.2009	0.272 kcal/mol	799.14 kg/m3	–
x1 = 0.3007	0.344 kcal/mol	798.02 kg/m3	–
x1 = 0.3998	–	–	1.39335
x1 = 0.4015	0.384 kcal/mol and 0.385 kcal/mol	797.16 kg/m3 and 797.13 kg/m3	–
x1 = 0.5008	0.396 kcal/mol	796.55 kg/m3	–
x1 = 0.602	–	–	1.39309
x1 = 0.6021	0.38 kcal/mol	796.12 kg/m3	–
x1 = 0.7004	0.336 kcal/mol	795.9 kg/m3	–
x1 = 0.7988	–	–	1.39313
x1 = 0.7998	0.262 kcal/mol	795.84 kg/m3	–
x1 = 0.8985	–	–	1.39325
x1 = 0.8998	0.155 kcal/mol	795.97 kg/m3	–
x1 = 0.9508	–	–	1.39335
x1 = 1	–	–	1.39346

CCCCC(CC)CO (centres undefined) [2-ethyl-1-hexanol]
Conditions	mass density [kg/m3]	refractive index	vapor or sublimation pressure [kPa]
[4], 297.86 K	828.8	–	–
[4], 389.76 K	–	–	9.88
[4], 407.11 K	–	–	19.88
[4], 418.24 K	–	–	30.03
[4], 426.95 K	–	–	39.67
[4], 430.79 K	–	–	45.05
[4], 433.51 K	–	–	49.22
[4], 437.24 K	–	–	55.52
[4], 439.49 K	–	–	59.61
[4], 442.12 K	–	–	64.64
[4], 445 K	–	–	70.55
[4], 447.04 K	–	–	75.01
[4], 449.02 K	–	–	79.55
[4], 451.06 K	–	–	84.49
[4], 456.77 K	–	–	99.44
[4], 457.83 K	–	–	102.2
[4], 458.23 K	–	–	102.91
[4], 458.24 K	–	–	103.26
[5], 297.86 K	–	1.4295	–
[5], 298.15 K	–	1.42949	–

CC(=O)CC(C)C [4-methylpentan-2-one]
Conditions	mass density [kg/m3]	refractive index	vapor or sublimation pressure [kPa]
[4], 297.84 K	796.4	–	–
[4], 340.18 K	–	–	19.35
[4], 340.66 K	–	–	19.78
[4], 343.42 K	–	–	21.92
[4], 351.55 K	–	–	30.01
[4], 352.71 K	–	–	31.12
[4], 353.11 K	–	–	31.71
[4], 359.22 K	–	–	39.35
[4], 359.39 K	–	–	39.63
[4], 359.58 K	–	–	40.05
[4], 362.88 K	–	–	44.7
[4], 365.9 K	–	–	49.68
[4], 366.61 K	–	–	50.66
[4], 368.06 K	–	–	53.01
[4], 368.07 K	–	–	53.42
[4], 368.14 K	–	–	53.26
[4], 368.15 K	–	–	53.24
[4], 368.7 K	–	–	54.29
[4], 371.34 K	–	–	59.43
[4], 371.64 K	–	–	59.75
[4], 371.91 K	–	–	60.19
[4], 374.37 K	–	–	65.18
[4], 376.26 K	–	–	69.16
[4], 376.49 K	–	–	69.98
[4], 378.8 K	–	–	74.83
[4], 380.65 K	–	–	79.56
[4], 381.06 K	–	–	80.16
[4], 382.66 K	–	–	84.16
[4], 384.99 K	–	–	90.58
[4], 388.07 K	–	–	98.7
[4], 388.31 K	–	–	99.4
[4], 388.63 K	–	–	100.35
[4], 388.65 K	–	–	100.41
[4], 389.06 K	–	–	101.85
[4], 389.49 K	–	–	102.78
[5], 297.84 K	–	1.3935	–
[5], 298.15 K	–	1.39346 and 1.39352	–

CC(=O)CC(C)C [4-methylpentan-2-one] + CCC(C)(C)O
Conditions	refractive index
[1], x1 = 1	1.39352
